Reference: patent US11434221B2, “Pyrazine-4-carbamate or -urea derivatives as herbicides” (Syngenta Participations AG, priority 2017, dated 2022)

Experiments:
Format in all cases: in vivo
Parameters in all cases: key: 5=total damage to plant; 0=no damage to plant
[1] = test system: Alopecurus myosuroides (ALOMY); assay: Pre-emergence herbicidal activity, glasshouse pot test; settings: sprayed one day after sowing, evaluated after 13 days
Experimental: (§1) Seeds of a variety of test species were sown in standard soil in pots: Triticum aestivium (TRZAW), Avena fatua (AVEFA), Alopecurus myosuroides (ALOMY), Echinochloa crus-galli (ECHCG), Lolium perenne (LOLPE), and Setaria faberi (SETFA). After cultivation for one day (pre-emergence) under controlled conditions in a glasshouse (at 24/16° C., day/night; 14 hours light; 65% humidity), the plants were sprayed with an aqueous spray solution derived from the formulation of the technical active ingredient in acetone/water (50:50) solution containing 0.5% Tween 20 (polyoxyethelyene sorbitan monolaurate, CAS RN 9005-64-5). The test plants were then grown in a glasshouse under controlled conditions (at 24/16° C., day/night; 14 hours light; 65% humidity) and watered twice daily. After 13 days, the test was evaluated (5=total damage to plant; 0=no damage to plant).

[2] = test system: Avena fatua (AVEFA); assay: as above; settings: sprayed one day after sowing, evaluated after 13 days
Experimental: as §1

[3] = test system: Echinochloa crus-galli (ECHCG); assay: as above; settings: sprayed one day after sowing, evaluated after 13 days
Experimental: as §1

[4] = test system: Lolium perenne (LOLPE); assay: as above; settings: sprayed one day after sowing, evaluated after 13 days
Experimental: as §1

[5] = test system: Setaria faberi (SETFA); assay: as above; settings: sprayed one day after sowing, evaluated after 13 days
Experimental: as §1

[6] = test system: Triticum aestivium (TRZAW); assay: as above; settings: sprayed one day after sowing, evaluated after 13 days
Experimental: as §1

[7] = test system: Alopecurus myosuroides (ALOMY); assay: Post-emergence herbicidal activity, glasshouse pot test; settings: sprayed after 8 days cultivation, evaluated after 13 days
Experimental: (§2) Seeds of a variety of test species were sown in standard soil in pots: Triticum aestivium (TRZAW), Avena fatua (AVEFA), Alopecurus myosuroides (ALOMY), Echinochloa crus-galli (ECHCG), Lolium perenne (LOLPE), and Setaria faberi (SETFA). After 8 days cultivation (post-emergence) under controlled conditions in a glasshouse (at 24/16° C., day/night; 14 hours light; 65% humidity), the plants were sprayed with an aqueous spray solution derived from the formulation of the technical active ingredient in acetone/water (50:50) solution containing 0.5% Tween 20 (polyoxyethelyene sorbitan monolaurate, CAS RN 9005-64-5). The test plants were then grown in a glasshouse under controlled conditions (at 24/16° C., day/night; 14 hours light; 65% humidity) and watered twice daily. After 13 days, the test was evaluated (5=total damage to plant; 0=no damage to plant).

[8] = test system: Avena fatua (AVEFA); assay: as above; settings: sprayed after 8 days cultivation, evaluated after 13 days
Experimental: as §2

[9] = test system: Echinochloa crus-galli (ECHCG); assay: as above; settings: sprayed after 8 days cultivation, evaluated after 13 days
Experimental: as §2

[10] = test system: Lolium perenne (LOLPE); assay: as above; settings: sprayed after 8 days cultivation, evaluated after 13 days
Experimental: as §2

[11] = test system: Setaria faberi (SETFA); assay: as above; settings: sprayed after 8 days cultivation, evaluated after 13 days
Experimental: as §2

[12] = test system: Triticum aestivium (TRZAW); assay: as above; settings: sprayed after 8 days cultivation, evaluated after 13 days
Experimental: as §2

Row | SMILES | Control of weed species after pre-emergence application, ALOMY (damage score 0-5) ([1]; Rate 1000 g/ha) | Control of weed species after pre-emergence application, AVEFA (damage score 0-5) ([2]; Rate 1000 g/ha) | Control of weed species after pre-emergence application, ECHCG (damage score 0-5) ([3]; Rate 1000 g/ha) | Control of weed species after pre-emergence application, LOLPE (damage score 0-5) ([4]; Rate 1000 g/ha) | Control of weed species after pre-emergence application, SETFA (damage score 0-5) ([5]; Rate 1000 g/ha) | Control of weed species after pre-emergence application, TRAZW (damage score 0-5) ([6]; Rate 1000 g/ha) | Control of weed species after post-emergence application, ALOMY (damage score 0-5) ([7]; Rate 1000 g/ha) | Control of weed species after post-emergence application, AVEFA (damage score 0-5) ([8]; Rate 1000 g/ha) | Control of weed species after post-emergence application, ECHCG (damage score 0-5) ([9]; Rate 1000 g/ha) | Control of weed species after post-emergence application, LOLPE (damage score 0-5) ([10]; Rate 1000 g/ha) | Control of weed species after post-emergence application, SETFA (damage score 0-5) ([11]; Rate 1000 g/ha) | Control of weed species after post-emergence application, TRAZW (damage score 0-5) ([12]; Rate 1000 g/ha) | other results
1 | C#Cc1nc(-c2cncc(F)c2)cnc1N(C(=O)OC(C)(C)C)C(=O)OC(C)(C)C [Compound H29] | 0 | 0 | 0 | 0 | 0 | 0 | 0 | 0 | 1 | 1 | 1 | 1 | 
2 | C=C(C)c1nc(-c2cncc(F)c2)cnc1N(C(=O)OC(C)(C)C)C(=O)OC(C)(C)C [Compound H11] | 1 | 0 | 3 | 2 | 4 | 0 | 0 | 2 | 3 | 2 | 5 | 0 | 
3 | CSc1cncc(-c2cnc(NC(=O)OC(C)(C)C)c(SC)n2)c1 [Compound H25] |  |  |  |  |  |  |  |  |  |  |  |  | Control of weed species after pre-emergence application, ALOMY (damage score 0-5) ([1]; Rate 250 g/ha): 0; Control of weed species after pre-emergence application, AVEFA (damage score 0-5) ([2]; Rate 250 g/ha): 0; Control of weed species after pre-emergence application, ECHCG (damage score 0-5) ([3]; Rate 250 g/ha): 0; Control of weed species after pre-emergence application, LOLPE (damage score 0-5) ([4]; Rate 250 g/ha): 0; Control of weed species after pre-emergence application, SETFA (damage score 0-5) ([5]; Rate 250 g/ha): 0; Control of weed species after pre-emergence application, TRAZW (damage score 0-5) ([6]; Rate 250 g/ha): 0; Control of weed species after post-emergence application, ALOMY (damage score 0-5) ([7]; Rate 250 g/ha): 0; Control of weed species after post-emergence application, AVEFA (damage score 0-5) ([8]; Rate 250 g/ha): 1; Control of weed species after post-emergence application, ECHCG (damage score 0-5) ([9]; Rate 250 g/ha): 1; Control of weed species after post-emergence application, LOLPE (damage score 0-5) ([10]; Rate 250 g/ha): 1; Control of weed species after post-emergence application, SETFA (damage score 0-5) ([11]; Rate 250 g/ha): 1; Control of weed species after post-emergence application, TRAZW (damage score 0-5) ([12]; Rate 250 g/ha): 0
4 | Cc1nc(-c2cncnc2)cnc1NC(=O)OC(C)(C)C [Compound H23] | 0 | 1 | 2 | 0 | 4 | 0 | 1 | 3 | 4 | 2 | 5 | 1 | 
5 | CC(C)(C)OC(=O)N(C(=O)OC(C)(C)C)c1ncc(-c2cncnc2)nc1C(F)F [Compound H31] | 2 | 1 | 2 | 0 | 2 | 0 | 1 | 3 | 5 | 2 | 5 | 1 | 
6 | Cc1nc(-c2cncc(F)c2)cnc1NC(=O)OC(C)(C)C [Compound H17] | 0 | 2 | 4 | 3 | 4 | 0 | 2 | 3 | 4 | 3 |  | 0 | 
7 | CC(C)(C)OC(=O)N(C(=O)OC(C)(C)C)c1ncc(-c2cncc(F)c2)nc1C1CC1 [Compound H12] | 0 | 0 | 1 | 0 | 4 | 0 | 0 | 2 | 3 | 2 | 5 | 0 | 
8 | CC(C)(C)OC(=O)N(C(=O)OC(C)(C)C)c1ncc(-c2cncc(F)c2)nc1OCc1ccccc1 [Compound H8] | 0 | 0 | 1 | 1 | 2 | 0 | 0 | 1 | 1 | 0 | 1 | 0 | 
9 | CC(C)(C)OC(=O)Nc1ncc(-c2cncc(F)c2)nc1CO [Compound H22] | 0 | 0 | 0 | 0 | 0 | 0 | 0 | 1 | 1 | 1 | 2 | 0 | 
